Activity calls are given as the source filed them.
What was measured:
Format in all cases: functional, cell-based
Conditions in all cases: time 5.0 day
HepG2 = experiment: Antiproliferative activity against human HepG2 cells assessed as reduction in cell viability after 5 days by MTT assay
HCT-116 = experiment: Antiproliferative activity against human HCT-116 cells assessed as reduction in cell viability after 5 days by MTT assay
KB 3-1 = experiment: Antiproliferative activity against human KB3.1 cells assessed as reduction in cell viability after 5 days by MTT assay

Measured: Activity

CC(C)=CC(=O)N(C)C/C=C/CC/C=C/C=C/C[C@@H](C)c1nc(C[C@@H](C)[C@H]2OC(=O)c3c(ccc(C)c3O)[C@@H]2O)co1
active: HepG2 | HCT-116 | KB 3-1

C=C(C/C=C/C=C/CC/C=C/CN(C)C(=O)C=C(C)C)c1nc(C[C@@H](C)[C@H]2OC(=O)c3c(ccc(C)c3O)[C@@H]2O)co1
active: HepG2 | HCT-116 | KB 3-1

C=C(C/C=C/C=C/CC/C=C/CN(C)C(=O)/C=C(\C)CO)c1nc(C[C@@H](C)[C@H]2OC(=O)c3c(ccc(C)c3O)[C@@H]2O)co1
active: HepG2 | HCT-116 | KB 3-1

C=C(C/C=C/C=C/CC/C=C/CN(C)C(=O)C=C(C)C)c1nc(C[C@@H](C)[C@H]2OC(=O)c3c(ccc(C)c3O)[C@@H]2O[C@@H]2O[C@H](CO)[C@@H](O)[C@H](O)[C@H]2O)co1
active: HepG2 | HCT-116 | KB 3-1

CC(C)=CC(=O)N(C)C/C=C/CC/C=C/C=C/CC(O)(CO[C@@H]1O[C@H](CO)[C@@H](O)[C@@H]1O)c1nc(C[C@@H](C)[C@H]2OC(=O)c3c(ccc(C)c3O)[C@@H]2O)co1 (some centres undefined)
active: HepG2 | HCT-116 | KB 3-1

CC(C)=CC(=O)N(C)C/C=C/CC/C=C/C=C/CC(O)(CO[C@@H]1O[C@H](CO)[C@@H](O)[C@H](O)[C@H]1O)c1nc(C[C@@H](C)[C@H]2OC(=O)c3c(ccc(C)c3O)[C@@H]2O)co1 (some centres undefined)
active: HepG2 | HCT-116 | KB 3-1

CC(C)=CC(=O)N(C)C/C=C/CC/C=C/C=C/CC(C)(O)c1nc(C[C@@H](C)[C@H]2OC(=O)c3c(ccc(C)c3O)[C@@H]2O)co1 (some centres undefined)
active: HepG2 | HCT-116 | KB 3-1

CC(C)=CC(=O)N(C)C/C=C/CC/C=C/C=C/CC(O)(CO)c1nc(C[C@@H](C)[C@H]2OC(=O)c3c(ccc(C)c3O)[C@@H]2O)co1 (some centres undefined)
active: HepG2 | HCT-116 | KB 3-1
